Test [1] concerns the target T1, ASIC1a channel (Rattus norvegicus, UniProt P55926).
T1 sequence (P55926 1-526): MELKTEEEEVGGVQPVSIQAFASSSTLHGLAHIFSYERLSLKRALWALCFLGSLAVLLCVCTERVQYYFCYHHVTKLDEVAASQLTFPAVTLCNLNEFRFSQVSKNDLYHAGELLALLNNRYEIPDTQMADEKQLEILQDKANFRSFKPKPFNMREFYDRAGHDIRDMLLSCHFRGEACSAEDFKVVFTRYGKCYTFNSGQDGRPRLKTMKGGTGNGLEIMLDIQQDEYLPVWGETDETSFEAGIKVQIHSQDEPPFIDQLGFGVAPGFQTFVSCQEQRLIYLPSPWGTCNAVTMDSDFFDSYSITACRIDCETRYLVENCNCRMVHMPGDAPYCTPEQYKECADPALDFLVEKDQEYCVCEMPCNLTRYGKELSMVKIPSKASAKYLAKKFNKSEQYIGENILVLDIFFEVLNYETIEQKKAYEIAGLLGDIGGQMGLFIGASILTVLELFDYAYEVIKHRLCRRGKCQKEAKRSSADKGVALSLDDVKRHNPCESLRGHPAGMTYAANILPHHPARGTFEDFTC
In words: Amiloride block of ASIC1a channel. The test is classed as cell-based. The following applies: IC50 10 μM versus 0.9 nM.

The target of test [2] is T1, ASIC1a channel. The following applies: read-out: IC50 for block of ASIC1a channel; cited from earlier work.
For test [3], the system named is ASIC1a, ASIC1b, ASIC2a, and ASIC3. The following applies: cited from earlier work.
Test [4] concerns the target ASIC1a channel (homomultimer).
The target of test [5] is ASIC1a channel (homomultimer). The source holds these as a separate data set.
In test [6] the target is T2, native PcTX1-sensitive H+-gated channel of rat dorsal root ganglion neurons (suggested by the filing to be a … (rat, UniProt P55926)).
T2 sequence: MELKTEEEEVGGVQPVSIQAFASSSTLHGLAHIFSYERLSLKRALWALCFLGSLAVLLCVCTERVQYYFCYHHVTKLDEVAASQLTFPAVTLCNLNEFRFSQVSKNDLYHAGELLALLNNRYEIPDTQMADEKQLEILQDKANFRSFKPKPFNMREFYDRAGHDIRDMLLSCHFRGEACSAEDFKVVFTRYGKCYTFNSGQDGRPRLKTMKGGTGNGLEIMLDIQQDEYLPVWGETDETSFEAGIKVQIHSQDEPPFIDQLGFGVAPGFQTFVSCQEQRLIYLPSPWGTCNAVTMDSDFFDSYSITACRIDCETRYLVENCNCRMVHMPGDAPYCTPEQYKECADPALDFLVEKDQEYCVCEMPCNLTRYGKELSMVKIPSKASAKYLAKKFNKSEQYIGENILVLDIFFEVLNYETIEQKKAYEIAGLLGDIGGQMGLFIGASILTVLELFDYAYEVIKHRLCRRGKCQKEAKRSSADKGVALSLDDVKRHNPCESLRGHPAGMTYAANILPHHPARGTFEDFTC
In words: cell-based or functional assay.

No end group written: not given here.

These results are taken from patent publication US7132505B1, “Polypeptide inhibiting a proton-gated Na+ channel, a nucleic acid coding for such polypeptide and a method of manufacturing an ASIC1a channel blocker” (Centre National de la Recherche Scientifique - CNRS, dated 2006).

On to `N=C(N)NC(=O)c1nc(Cl)c(N)nc1N` [amiloride], for which the “affinity for ASIC1a relative to PcTX1 (fold lower)” value on ASIC1a channel [1] is given as 10^4. Moreover, the IC50 at ASIC1a channel [2] is 10 µM. Further, the “block of transient current generated by ASIC1a, ASIC1b, ASIC2a, and ASIC3” value in test [3] is given as “blocks all transient expression of current”.
In turn, “crude Psalmopoeus cambridgei venom (pool or library)” showed an ASIC1a current in Xenopus oocytes in test [4] of 90%.
In the case of EDCIPKWKGCVNRHGDCCEGLECWKRRRSFEVCVPKTPKT-OH (disulfide (positions not given here)) [Psalmotoxin 1 (PcTX1)], in test [5], the IC50 of block of the ASIC1a current recorded at pH 6 in Xenopus oocytes amounted to 0.9 nM. The “IC50 of inhibition of the H+-gated current in the PcTX1-sensitive population of DRG neurons” value in test [6] is 0.0007 µM.
